In brackets after ≈: the same amount, converted by molar mass. Several values for one entry are separate records, joined by “and”; a condition that tells them apart may be missing. Equal values may be shown once. Read-outs that look alike come from different tables or passages of the source.
Assays:
[1] = tested on: S. pneumoniae; experiment: Single dose azithromycin pediatric AOM trial, subjects with S. pneumoniae at baseline; format: in vivo, human; conditions: for patients cured at day 28: 30 mg/kg
From the text: Children six months to twelve years were enrolled if they had symptoms and signs of acute otitis media (“AOM”) for less than four weeks and middle ear effusion by acoustic reflectometry. Symptoms necessary for enrollment included ear pain or fullness, discharge from the external auditory canal, decreased hearing or fever. On physical examination they must have had one or more of the following: bulging or marked erythema of the tympanic membrane, loss of the normal light reflex or tympanic membrane landmarks, or impaired tympanic mobility on biphasic pneumatic otoscopy. The effusion was to be documented by acoustic reflectometry with an abnormal reading of 3 or higher.
Samples of middle ear fluid were obtained by tympanocentesis or, in the case of a perforated tympanic membrane, by swab. Middle ear fluid samples were obtained for culture at baseline. […] Children who vomited within thirty minutes of dosing were redosed.
Samples of middle ear fluid were split for storage at a central laboratory and cultured locally.
A phone contact occurred on study day 5 to assess for adverse events followed by visits on days 10 and 24–28, at which time detailed clinical assessments were made and adverse events were recorded. Definitions included clinical cure (complete resolution of all signs and symptoms of AOM); improvement (partial resolution of signs and symptoms); or failure (no change or worsening of signs and symptoms, or requirement for additional antibiotic therapy for AOM). Any patient considered to have failed therapy was to have a repeat tympanocentesis.
The primary endpoint of the trial was the investigator designated cure rate at Day 24–28 for which a 95% confidence interval was computed using the normal approximation to the binomial distribution. Other endpoints analyzed included the clinical response rate by baseline pathogen at Day 24–28, the overall clinical response at Day 10, the percentage of subjects with individual signs and symptoms, as well as findings from pneumatic otoscopy and acoustic reflectometry. Only Streptococcus pneumoniae, Moraxella catarrhalis and Haemophilus influenzae were considered baseline pathogens for the purposes of these analyses.
Not all strains are equally virulent and the growth rate and kinetics of infection may influence the outcome. In addition, H. influenzae has been a difficult organism to culture from the middle ear.

[2] = tested on: Haemophilus influenzae 54A1218; experiment: Gerbil middle ear infection in vivo time kill, H. influenzae 54A1218; conditions: for eradication: at 72 and 96 hours post-infection
[3] = tested on: H. influenzae; experiment: Susceptibility testing of trial H. influenzae isolates; format: cell-based, Haemophilus influenzae; conditions: NCCLS criteria
From the text: Samples of middle ear fluid were split for storage at a central laboratory and cultured locally. All pathogens isolated locally were subcultured and sent to a central laboratory for confirmation and susceptibility testing, performed by Kirby-Bauer disk-diffusion or MIC testing according to NCCLS standards.
Cultures were taken for antimicrobial susceptibility testing and bacterial species were identified. Current NCCLS approved breakpoints for MICs and zone sizes were applied to all data irrespective of the breakpoint in use at the time of the study. The isolates from the clinical studies were sent to central laboratories for identification and susceptibility determination. The methods for agar diffusion disk tests are those recommended by NCCLS.
The susceptibility breakpoints for azithromycin were defined as follows: […]

[4] = tested on: Streptococcus pyogenes 02C0203; experiment: Murine acute infection (peritonitis) model challenged with Streptococcus pyogenes; format: in vivo, mouse
[5] = Azithromycin serum pharmacokinetics in mice; format: in vivo, mouse; conditions: for Cmax / Tmax / AUC(0-t): female, CF-1, mouse, Serum PK, total dose 100 mg/kg oral; for AUC(0-t): read-out: AUC(0-tlast)
Procedure: Blood and pulmonary tissue samples were taken starting at 0.5 h post-dose and at predetermined intervals over a 96 h period. […] […] The lower limit of quantification (LLOQ) was 50 ng/ml. […] Interassay variability was <7%. Pharmacokinetic parameters were calculated using the non-compartmental method by WinNonlin 2.1 (Scientific Consulting, Inc.).

[6] = tested on: H. influenzae 54A1218; experiment: MIC determination, H. influenzae 54A1218; format: cell-based; conditions: Haemophilus influenzae
Procedure: MIC Determinations. Streptococcus pneumoniae, S. pyogenes, E. faecalis, and H. influenzae MICs were determined using the broth microdilution procedure recommended by the NCCLS. Test trays were incubated at 35C without carbon dioxide. For testing of streptococci, the cation-adjusted Mueller-Hinton broth was supplemented with 2–3% lysed horse blood. For testing H. influenzae, freshly prepared Haemophilus Test Medium broth was used.
Bacterial Strains. • S. pneumoniae 02J1016, serotype 3, originally isolated from blood culture (strain P 4241) (MLS- and penicillin-susceptible). • S. pyogenes 02C0203, ATCC 12384, group A, type 3 (MLS-susceptible). • E. faecalis 03A1085, vancomycin susceptible clinically derived strain. • H. influenzae 54A1100, (43095 ATCC Fulghum strain) non-serotype B strain originally isolated from otitis media (macrolide and penicillin susceptible). • H. influenzae 54A1218, clinically derived non-serotype B strain (macrolide-susceptible, penicillin-resistant, TEM-1 beta-lactamase).

[7] = tested on: Chlamydia trachomatis; conditions: azithromycin (± an anti-inflammatory agent); cited from earlier work
[8] = tested on: Mycoplasma pneumoniae; conditions: single oral 10 mg/kg dose; only one of several macrolides tested; cited from earlier work
[9] = oral QD, murine peritonitis model
[10] = 33 mg/kg, 3 days of dosing, 33.3 mg/kg/dose
[11] = 1 day of dosing, 100 mg/kg/dose
[12] = 2 days of dosing, 50 mg/kg/dose

SMILES: CC[C@H]1OC(=O)[C@H](C)[C@@H](O[C@H]2C[C@@](C)(OC)[C@@H](O)[C@H](C)O2)[C@H](C)[C@@H](O[C@@H]2O[C@H](C)C[C@H](N(C)C)[C@H]2O)[C@](C)(O)C[C@@H](C)CN(C)[C@H](C)[C@@H](O)[C@]1(C)O [Azithromycin, 9a-aza-9a-methyl-9-deoxo-9a-homoerythromycin A]
- clinical cure rate versus susceptible S. pneumoniae isolates ([1]; MICs≦0.25 μg/ml): 92.5%
- strains clinically cured ([1]; human, in vivo): 40%
- patients cured at day 28 ([1]; human, in vivo): two of these five
- Clinical cure at day 28, number of children ([1]; nine children with penicillin resistant S. pneumoniae isolates (MIC≧2 μg/ml)): 6
- clinical cure rate versus resistant S. pneumoniae isolates ([1]; resistant isolates): 66.7%
- patients cured at day 28 ([1]; seven patients with mef A isolates (MIC 8 μg/ml), single 30 mg/kg dose): Six of these seven and 6/7
- Recoverable CFU (Bulla) [Log10.Geo.Mean] (SEM) ([2]; 66.6 mg/kg/day oral Q.D. [3 days], 48 hours post-infection): <5.2399 (1.21) log of cfu-bulla wash/ml and <5.2399 log of cfu-bulla wash/ml
- Recoverable CFU (Bulla) [Log10.Geo.Mean] (SEM) ([2]; 66.6 mg/kg/day oral Q.D. [3 days], 72 hours post-infection): <2.0000 log of cfu-bulla wash/ml
- Recoverable CFU (Bulla) [Log10.Geo.Mean] (SEM) ([2]; 66.6 mg/kg/day oral Q.D. [3 days], 96 hours post-infection): <2.0000 log of cfu-bulla wash/ml
- Recoverable CFU (Bulla) [Log10.Geo.Mean] (SEM) ([2]; 100 mg/kg/day oral Q.D. [2 days], 48 hours post-infection): <3.8587 (1.04) log of cfu-bulla wash/ml and <3.857 log of cfu-bulla wash/ml
- Recoverable CFU (Bulla) [Log10.Geo.Mean] (SEM) ([2]; 100 mg/kg/day oral Q.D. [2 days], 72 hours post-infection): <2.0000 log of cfu-bulla wash/ml
- Recoverable CFU (Bulla) [Log10.Geo.Mean] (SEM) ([2]; 100 mg/kg/day oral Q.D. [2 days], 96 hours post-infection): <2.0000 log of cfu-bulla wash/ml
- Recoverable CFU (Bulla) [Log10.Geo.Mean] (SEM) ([2]; 200 mg/kg/day oral Q.D. [1 day], 48 hours post-infection): <2.0000 log of cfu-bulla wash/ml
- Recoverable CFU (Bulla) [Log10.Geo.Mean] (SEM) ([2]; 200 mg/kg/day oral Q.D. [1 day], 72 hours post-infection): <2.0602 log of cfu-bulla wash/ml
- Recoverable CFU (Bulla) [Log10.Geo.Mean] (SEM) ([2]; 200 mg/kg/day oral Q.D. [1 day], 96 hours post-infection): <2.0000 log of cfu-bulla wash/ml
- eradication ([2]; Q.D. 2): eradication was observed
- eradication ([2]; Q.D. 3): eradication was observed
- % Clearance of Group ([2]; QD1, 48 hours post infection, <1 × 10^3 cfu/ml considered negative): 100%
- % Clearance of Group ([2]; QD1, 72 hours post infection): 100%
- % Clearance of Group ([2]; QD1, 96 hours post infection): 100%
- % Clearance of Group ([2]; QD2, 48 hours post infection): 40%
- % Clearance of Group ([2]; QD2, 72 hours post infection): 100%
- % Clearance of Group ([2]; QD2, 96 hours post infection): 100%
- % Clearance of Group ([2]; QD3, 48 hours post infection): 40%
- % Clearance of Group ([2]; QD3, 72 hours post infection): 100%
- % Clearance of Group ([2]; QD3, 96 hours post infection): 100%
- susceptibility of isolated H. influenzae to azithromycin [3]: susceptible
- Oral PD50 ([4]; Dosing Regimen 1 day): 1.0 (0.6–1.4) mg/kg/day
- Oral PD50 ([4]; Dosing Regimen 2 days): 2.5 (1.8–3.3) mg/kg/day
- Oral PD50 ([4]; Dosing Regimen 3 days): 3.8 (3.8–3.9) mg/kg/day
- Mice Surviving/Total ([4]; mouse, in vivo): 1/10 and 10/10 and 8/10 and 3/10 and 0/10 and 9/10 and 7/10
- ED50 One-Day Therapy [4, 9]: 0.78^1 mg/kg/therapy
- ED50 Two-Day Therapy [4, 9]: 1.1 mg/kg/therapy
- Cmax, single dose vs. the same total dose administered over 3 days ([5]; better when administered as a single dose): 3 fold
- Cmax [5, 10]: 980 ng/mL
- Tmax [5, 10]: 26 h
- AUC(0-t) [5, 10]: 19800 ng·h/mL
- Cmax [5, 11]: 2100 ng/mL
- Tmax [5, 11]: 2 h
- AUC(0-t) [5, 11]: 18800 ng·h/mL
- Cmax [5, 12]: 1300 ng/mL
- Tmax [5, 12]: 26 h
- AUC(0-t) [5, 12]: 15900 ng·h/mL
- MIC [6]: 0.78 µg/mL (≈ 1.04 µM)
- preserving fertility [7]: superior to doxycycline and ofloxacin combinations
- efficacy [8]: efficacious

From patent publication US6987093B2 (priority 2001, dated 2006)
